Laboratory results published in patent US8674095B2, “Compounds for treating neuropsychiatric conditions” (Afraxis Holdings, Inc., priority 2008, dated 2014).

What was measured:
PAK1, PAK2, PAK3, PAK-4 = assay: PAK isoform inhibition profile of example compounds; assay type: biochemical; details: classification of example compounds in the description; underlying IC50 data in Table 8
Text: In some embodiments, the PAK inhibitor is a Group I PAK inhibitor that inhibits, for example, one or more Group I PAK polypeptides, for example, PAK1, PAK2, and/or PAK3. […] In some embodiments, the PAK inhibitor is a PAK2 inhibitor. In some embodiments, the PAK inhibitor is a PAK3 inhibitor. In some embodiments, the PAK inhibitor is a mixed PAK1/PAK3 inhibitor. […] In some embodiments, the PAK inhibitor is a Group II PAK inhibitor that inhibits one or more Group II PAK polypeptides, for example PAK-4, PAK5, and/or PAK6. In some embodiments, the PAK inhibitor is a PAK4 inhibitor. In some embodiments, the PAK inhibitor is a PAK5 inhibitor. In some embodiments, the PAK inhibitor is a PAK6 inhibitor.
(§1) A fluorescence-based assay format is used to determine IC50 values of test compounds in vitro. Purified PAK kinase is incubated with ATP, and a test compound at various concentrations and a substrate peptide containing two fluorophores. In a second step, the reaction mix is incubated with a site-specific protease that cleaves non-phosphorylated but not phosphorylated substrate peptide, disrupting the FRET signal generated by the two fluorophores in the cleaved peptide (Z′Lyte™ Kinase assay platform; Life Technologies).
(§2) Reagents: 50 mM HEPES, pH 7.5; 0.01% BRIJ-35; 10 mM MgCl2; 1 mM EGTA, 2 uM substrate peptide Ser/Thr20 (proprietary Life Technologies Sequence), PAK enzyme [2.42-30.8 ng for PAK1, 0.29-6 ng for PAK2, 1.5-20 ng for PAK3 and 0.1-0.86 ng for PAK4; actual enzyme amounts depend on lot activity of the enzyme preparation]
(§3) Test compounds are dissolved in DMSO at various concentrations; the final DMSO concentration in the assay reaction is 1%.
(§4) ATP concentration at Km apparent is used in the assay [50 μM ATP for PAK1 assay, 75 μM ATP for PAK2 assay, 100 μM ATP for PAK3 assay, 5 μM ATP for PAK-4 assay] in a total assay volume of […] Assay reactions are incubated at room temperature for 1 hr. Following the kinase reaction, 5 μl of 1:256 dilution of development solution A (Life Technologies) is added and the reaction mix is incubated for an additional 1 hr at room temperature.
(§5) Plates are analyzed in a standard fluorescence plate reader (Tecan or equivalent) using an excitation wavelength of 400 nm and emission wavelengths of 445 nm and 520 nm. Inhibition of kinase reaction is determined by emission ratio=emission@445 nm/emission@520 nm

PAK2 = PAK2 (Homo sapiens, UniProt Q13177); assay: Z'Lyte fluorescence-based (FRET) kinase assay, PAK2; assay type: biochemical; details: 75 μM ATP (Km apparent), 1 hr room temperature, 1% DMSO
Protocol: as §1, §2, §3, §4, §5

PAK3 = PAK3 (Homo sapiens, UniProt O75914); assay: Z'Lyte fluorescence-based (FRET) kinase assay, PAK3; assay type: biochemical; details: 100 μM ATP (Km apparent), 1 hr room temperature, 1% DMSO
Protocol: as §1, §2, §3, §4, §5

PAK1 = PAK1 (Homo sapiens, UniProt Q13153); assay: Z'Lyte fluorescence-based (FRET) kinase assay, PAK1; assay type: biochemical; details: 50 μM ATP (Km apparent), 1 hr room temperature, 1% DMSO
Protocol: as §1, §2, §3, §4, §5

PAK4 = PAK4 (Homo sapiens, UniProt O96013); assay: Z'Lyte fluorescence-based (FRET) kinase assay, PAK4; assay type: biochemical; details: 5 μM ATP (Km apparent), 1 hr room temperature, 1% DMSO
Protocol: as §1, §2, §3, §4, §5

[1] = tested on: Wistar rat pups injected with tetanus toxin; details: in vivo

PAK2, sequence (Q13177 whole entry): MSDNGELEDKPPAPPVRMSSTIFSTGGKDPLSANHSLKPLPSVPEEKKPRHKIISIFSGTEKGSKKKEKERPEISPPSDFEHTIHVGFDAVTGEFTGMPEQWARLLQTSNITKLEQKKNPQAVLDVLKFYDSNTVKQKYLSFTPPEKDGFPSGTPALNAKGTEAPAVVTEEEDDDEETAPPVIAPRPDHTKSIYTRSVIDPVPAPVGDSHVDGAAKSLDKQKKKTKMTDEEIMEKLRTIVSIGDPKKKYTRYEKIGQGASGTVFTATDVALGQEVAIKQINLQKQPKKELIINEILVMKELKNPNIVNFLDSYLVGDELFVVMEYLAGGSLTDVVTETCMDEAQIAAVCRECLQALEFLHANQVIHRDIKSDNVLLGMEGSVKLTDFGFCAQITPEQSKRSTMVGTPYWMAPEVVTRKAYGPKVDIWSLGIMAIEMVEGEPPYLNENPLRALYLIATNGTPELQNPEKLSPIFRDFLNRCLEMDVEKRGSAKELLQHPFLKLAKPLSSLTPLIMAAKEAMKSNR
PAK1, sequence (Q13153 whole entry): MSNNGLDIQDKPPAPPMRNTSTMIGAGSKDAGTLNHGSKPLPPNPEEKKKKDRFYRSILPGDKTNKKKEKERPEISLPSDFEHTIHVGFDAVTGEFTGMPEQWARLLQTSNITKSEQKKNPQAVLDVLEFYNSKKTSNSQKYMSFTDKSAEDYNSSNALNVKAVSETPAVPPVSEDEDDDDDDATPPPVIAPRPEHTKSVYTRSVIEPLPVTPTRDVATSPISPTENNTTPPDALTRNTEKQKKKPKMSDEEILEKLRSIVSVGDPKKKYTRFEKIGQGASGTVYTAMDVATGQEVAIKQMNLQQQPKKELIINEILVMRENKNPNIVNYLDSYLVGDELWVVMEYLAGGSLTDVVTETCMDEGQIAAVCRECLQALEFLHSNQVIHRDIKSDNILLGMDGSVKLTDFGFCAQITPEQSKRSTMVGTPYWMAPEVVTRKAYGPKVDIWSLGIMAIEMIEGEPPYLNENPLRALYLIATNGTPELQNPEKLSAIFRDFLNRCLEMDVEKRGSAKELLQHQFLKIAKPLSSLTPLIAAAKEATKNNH
PAK3, sequence (O75914 whole entry): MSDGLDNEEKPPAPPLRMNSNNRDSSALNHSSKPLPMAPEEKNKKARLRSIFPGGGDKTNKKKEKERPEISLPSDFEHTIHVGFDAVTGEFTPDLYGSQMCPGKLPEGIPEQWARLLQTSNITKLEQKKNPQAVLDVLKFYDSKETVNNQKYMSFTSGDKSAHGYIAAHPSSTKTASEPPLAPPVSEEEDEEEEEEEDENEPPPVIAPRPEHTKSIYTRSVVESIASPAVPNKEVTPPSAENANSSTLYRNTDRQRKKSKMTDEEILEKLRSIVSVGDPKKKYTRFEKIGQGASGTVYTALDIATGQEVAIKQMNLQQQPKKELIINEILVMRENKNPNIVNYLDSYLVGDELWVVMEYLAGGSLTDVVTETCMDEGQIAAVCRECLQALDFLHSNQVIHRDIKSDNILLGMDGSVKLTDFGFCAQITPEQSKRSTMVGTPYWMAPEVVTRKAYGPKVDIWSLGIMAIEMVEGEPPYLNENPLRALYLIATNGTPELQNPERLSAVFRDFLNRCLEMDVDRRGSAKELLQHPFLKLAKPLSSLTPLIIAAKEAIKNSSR
PAK4, sequence (O96013 whole entry): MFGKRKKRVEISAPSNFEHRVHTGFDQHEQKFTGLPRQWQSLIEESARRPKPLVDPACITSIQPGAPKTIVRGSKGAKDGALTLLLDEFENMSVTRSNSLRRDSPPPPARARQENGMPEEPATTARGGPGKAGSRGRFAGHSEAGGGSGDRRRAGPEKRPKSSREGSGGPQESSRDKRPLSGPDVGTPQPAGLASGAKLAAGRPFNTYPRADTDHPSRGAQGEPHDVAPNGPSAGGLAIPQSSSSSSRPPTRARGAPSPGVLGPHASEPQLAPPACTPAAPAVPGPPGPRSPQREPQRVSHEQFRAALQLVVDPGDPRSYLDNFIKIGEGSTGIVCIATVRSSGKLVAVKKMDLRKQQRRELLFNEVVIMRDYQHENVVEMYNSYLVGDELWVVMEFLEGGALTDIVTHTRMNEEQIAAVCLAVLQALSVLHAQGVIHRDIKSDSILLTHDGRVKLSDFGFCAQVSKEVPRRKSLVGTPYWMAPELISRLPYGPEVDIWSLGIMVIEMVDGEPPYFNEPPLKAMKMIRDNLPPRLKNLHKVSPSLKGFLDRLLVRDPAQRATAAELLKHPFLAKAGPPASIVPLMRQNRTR

Q: For CN1CCN(c2ccc(Nc3ncc4ccc(=O)n(Cc5c(F)cccc5Cl)c4n3)cc2)CC1 [Compound 53], which “PAK inhibitor type (isoform profile)” value (PAK1, PAK2, PAK3, PAK-4) is on record?
A: Its value is “mixed PAK1/PAK2/PAK3/PAK-4 inhibitor”.

Q: And the IC50 (PAK2)?
A: Its IC50 is under 1000 nM.

Q: What about the IC50 (PAK3) of the same compound?
A: Its IC50 is under 1000 nM.

Q: And the IC50 (PAK1)?
A: Its IC50 is under 1000 nM.

Q: What about the IC50 (PAK4) of the same compound?
A: The IC50 was under 1000 nM.

Q: Which results are given for CN1CCN(c2ccc(Nc3ncc4ccc(=O)n([C@H]5CCCc6ccccc65)c4n3)cc2)CC1 [Compound 12]?
A: PAK inhibitor type (isoform profile) (PAK1, PAK2, PAK3, PAK-4): PAK1 inhibitor; IC50 (PAK2): 1000 to 10000 nM; IC50 (PAK3): 1000 to 10000 nM; IC50 (PAK1): < 1000 nM; Effect on seizures [1]: reduce the frequency and severity of seizures; IC50 (PAK4): 1000 to 10000 nM

Q: For CN1CCN(c2ccc(Nc3ncc4ccc(=O)n(Cc5c(Cl)cccc5Cl)c4n3)cc2)CC1 [Compound 57], which “PAK inhibitor type (isoform profile)” value (PAK1, PAK2, PAK3, PAK-4) is on record?
A: The value was “mixed PAK1/PAK2/PAK-4 inhibitor”.

Q: What about the IC50 (PAK2) of the same compound?
A: Its IC50 is under 1000 nM.

Q: And the IC50 (PAK3)?
A: The IC50 was 1000 to 10000 nM.

Q: And the IC50 (PAK1)?
A: Its IC50 is under 1000 nM.

Q: And the IC50 (PAK4)?
A: Its IC50 is under 1000 nM.

Q: Which “PAK inhibitor type (isoform profile)” value (PAK1, PAK2, PAK3, PAK-4) does the source give for O=c1ccc2cnc(Nc3ccc(N4CCNCC4)c(F)c3)nc2n1Cc1ccccc1C(F)(F)F [Compound 62] here?
A: Its value is “mixed PAK1/PAK2/PAK3/PAK-4 inhibitor”.

Q: What about the IC50 (PAK2) of the same compound?
A: Its IC50 is under 1000 nM.

Q: What about the IC50 (PAK3) of the same compound?
A: Its IC50 is under 1000 nM.

Q: What about the IC50 (PAK1) of the same compound?
A: Its IC50 is under 1000 nM.

Q: And the IC50 (PAK4)?
A: The IC50 was under 1000 nM.

Q: CN1CCN(c2ccc(Nc3ncc4ccc(=O)n(Cc5ccccc5S(C)(=O)=O)c4n3)cc2)CC1 [Compound 72] was tested. Which “PAK inhibitor type (isoform profile)” value (PAK1, PAK2, PAK3, PAK-4) did it give?
A: The value was “mixed PAK1/PAK2/PAK3/PAK-4 inhibitor”.

Q: What about the IC50 (PAK2) of the same compound?
A: Its IC50 is under 1000 nM.

Q: And the IC50 (PAK3)?
A: Its IC50 is under 1000 nM.

Q: What about the IC50 (PAK1) of the same compound?
A: Its IC50 is under 1000 nM.

Q: What about the IC50 (PAK4) of the same compound?
A: The IC50 was under 1000 nM.

Q: Which “PAK inhibitor type (isoform profile)” value (PAK1, PAK2, PAK3, PAK-4) does the source give for CN1CCN(c2ccc(Nc3ncc4ccc(=O)n(Cc5ccccc5-c5ccccc5)c4n3)cc2)CC1 [Compound 68] here?
A: The value was “inhibits all three Group I PAK isoforms (PAK1, 2 and PAK3) with equal or similar potency”.

Q: What about the IC50 (PAK2) of the same compound?
A: Its IC50 is under 1000 nM.

Q: What about the IC50 (PAK3) of the same compound?
A: Its IC50 is under 1000 nM.

Q: And the IC50 (PAK1)?
A: The IC50 was under 1000 nM.

Q: What about the IC50 (PAK4) of the same compound?
A: The IC50 was 1000 to 10000 nM.

Q: What does the source list for CN1CCN(c2ccc(Nc3ncc4ccc(=O)n(Cc5ccccc5C5CC5)c4n3)cc2)CC1 [Compound 81, 8-(2-cyclopropylbenzyl)-2-(4-(4-methylpiperazin-1-yl)phenylamino)pyrido[2,3-d]pyrimidin-7(8H)-one]?
A: PAK inhibitor type (isoform profile) (PAK1, PAK2, PAK3, PAK-4): mixed PAK1/PAK2/PAK3/PAK-4 inhibitor; IC50 (PAK2): < 1000 nM; IC50 (PAK3): < 1000 nM; IC50 (PAK1): < 1000 nM; IC50 (PAK4): < 1000 nM

Q: For CN1CCN(c2ccc(Nc3ncc4ccc(=O)n(Cc5ccccc5-c5cccs5)c4n3)cc2)CC1 [Compound 77], which “PAK inhibitor type (isoform profile)” value (PAK1, PAK2, PAK3, PAK-4) is on record?
A: The value was “inhibits all three Group I PAK isoforms (PAK1, 2 and PAK3) with equal or similar potency”.

Q: What about the IC50 (PAK2) of the same compound?
A: Its IC50 is under 1000 nM.

Q: And the IC50 (PAK3)?
A: The IC50 was under 1000 nM.

Q: And the IC50 (PAK1)?
A: The IC50 was under 1000 nM.

Q: And the IC50 (PAK4)?
A: Its IC50 is 1000 to 10000 nM.

Q: Which “PAK inhibitor type (isoform profile)” value (PAK1, PAK2, PAK3, PAK-4) does the source give for CN1CCN(c2ccc(Nc3ncc4ccc(=O)n(Cc5c(F)cccc5F)c4n3)cc2)CC1 [Compound 58] here?
A: Its value is “PAK1 inhibitor”.

Q: And the IC50 (PAK2)?
A: The IC50 was 1000 to 10000 nM.

Q: What about the IC50 (PAK3) of the same compound?
A: Its IC50 is 1000 to 10000 nM.

Q: And the IC50 (PAK1)?
A: Its IC50 is under 1000 nM.

Q: And the IC50 (PAK4)?
A: The IC50 was 1000 to 10000 nM.

Q: What does the source list for CN1CCN(c2ccc(Nc3ncc4ccc(=O)n(Cc5c(Cl)cccc5Br)c4n3)cc2)CC1 [Compound 71]?
A: PAK inhibitor type (isoform profile) (PAK1, PAK2, PAK3, PAK-4): mixed PAK1/PAK2/PAK3/PAK-4 inhibitor; IC50 (PAK2): < 1000 nM; IC50 (PAK3): < 1000 nM; IC50 (PAK1): < 1000 nM; IC50 (PAK4): < 1000 nM
